Patent US20170275298A1, “INHIBITORS OF THE RENAL OUTER MEDULLARY POTASSIUM CHANNEL” (Merck Sharp & Dohme Corp., priority 2014, published 2017)

Target: T1, hROMK (hKir1.1) (Homo sapiens, UniProt P48048)
T1 construct: expressed in transfected cells
T1 sequence (P48048 1-391): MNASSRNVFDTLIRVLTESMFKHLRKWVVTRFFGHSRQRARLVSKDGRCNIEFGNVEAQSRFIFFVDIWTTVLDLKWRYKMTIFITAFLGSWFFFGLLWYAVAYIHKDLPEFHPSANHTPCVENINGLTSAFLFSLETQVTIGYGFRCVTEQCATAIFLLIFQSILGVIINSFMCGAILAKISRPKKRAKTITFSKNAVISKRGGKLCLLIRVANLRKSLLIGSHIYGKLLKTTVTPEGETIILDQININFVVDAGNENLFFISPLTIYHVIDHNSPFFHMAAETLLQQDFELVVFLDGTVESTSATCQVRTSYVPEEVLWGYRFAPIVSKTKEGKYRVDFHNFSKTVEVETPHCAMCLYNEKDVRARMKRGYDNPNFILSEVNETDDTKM
Assay: Thallium Flux Assay (ROMK channel functional thallium flux assay)
Type: cell-based
Conditions: HEK293 cells stably expressing hROMK (hKir1.1); FluxOR thallium flux, FLIPR-Tetra, 30 min compound incubation; read-out: ROMK TI IC50
Protocol: The following Thallium Flux Assay was performed on each of the final product compounds in the Examples.
HEK293 cells stably expressing hROMK (hKir1.1) were grown at 37° C. in a 10% CO2 humidified incubator in complete growth media: Dulbecco's Modified Eagle Medium supplemented with non-essential amino acids, Penicillin/Streptomycin/Glutamine, G418 and FBS. At >80% confluency, the media was aspirated from the flask and rinsed with 10 mL calcium/magnesium-free PBS. […] To dislodge the cell, the side of the flask was gently banged with one's hand. The cells completely titrated and then the cells were transferred to 25 mL complete media, centrifuged at 1,500 rpm for 6 min followed by resuspension in complete growth media and determine cell concentration. […] Under ideal growth conditions and appropriate tissue culture practices, this cell line is stable for 40-45 passages.
• FluxOR™ Reagent (Component A) • FluxOR™ Assay Buffer (Component B)—10× Concentrate • PowerLoad™ Concentrate (Component C)—100× Concentrate • Probenecid (Component D)—Lyophilized sample is kept at −20° C. Water soluble, 100× after solubilization in 1 mL water. […] Store at 4° C. • Thallium sulfate (Tl2SO4) Concentrate (Component G)—50 mM in water. Store at 4° C. • DMSO (dimethyl sulfoxide, Component H)—1 mL (100%)
Can be stored at room temperature • Stimulant Buffer (prepared at 5× final concentration in 1×FluxOR™ Chloride-Free Buffer): 7.5 mM thallium sulfate and 0.75 mM potassium sulfate (to give a final assay concentration of 3 mM Thallium/0.3 mM potassium). Store at 4° C. when not in use. If kept sterile, this solution is good for months.
The ROMK channel functional thallium flux assay was performed in 384 wells, using the FLIPR-Tetra instrument. HEK-hKir1.1 cells were seeded in Poly-D-Lysine microplates and kept in a 37° C.-10% CO2 incubator overnight. On the day of the experiment, the growth media was replaced with the FluxOR™ reagent loading buffer and incubated, protected from light, at ambient temperature (23-25° C.) for 90 min. The loading buffer was replaced with assay buffer±test compound followed by 30 min incubation at ambient temperature, where the thallium/potassium stimulant was added to the microplate.
1. Seed HEK-hKir1.1 cells (50 μl at 20,000 cells/well) in 384-well PDL coated Microplates 2. Allow cells to adhere overnight in humidified 37° C./10% CO2 incubator 3. Completely remove cell growth media from microplate and replace with 25 μl loading buffer 4. Incubate Microplate at room temperature, protected form light, for 90 min 5. Remove loading buffer and replace with 25 μl 1× Assay Buffer±test compound. 6. Incubate microplate at room temperature, protected from light, for 30 min 7. […] Excitation=400 nm, Emission=460 & 580 nm. Collect data for ˜10 min.
The fluorescence intensity of wells containing 3 μM of a standard control ROMK inhibitor of the present invention was used to define the ROMK-sensitive component of thallium flux. Fluorescence in the presence of test compounds was normalized to control values to provide % fluorescence change.

Row | SMILES | IC50 [nM]
1 | Cc1nc(-n2cnnn2)ccc1[C@@H](O)CN1CCC2(CC1)CCN(c1ccc(=O)n(C)n1)C2=O [Example 93, (R)-8-(2-hydroxy-2-(2-methyl-6-(1H-tetrazol-1-yl)pyridin-3-yl)ethyl)-2-(1-methyl-6-oxo-1,6-dihydropyridazin-3-yl)-2,8-diazaspiro[4.5]decan-1-one] | 259
2 | Cc1c([C@@H](O)CN2CCC3(CC2)CCN(c2cnc(Br)cn2)CC3)ccc2c1COC2=O [Example 127, (R)-5-(2-(9-(5-bromopyrazin-2-yl)-3,9-diazaspiro[5.5]undecan-3-yl)-1-hydroxyethyl)-4-methylisobenzofuran-1(3H)-one] | 29.9
3 | CCc1nccc(N2CCC3(CCN(C[C@H](O)c4ccc5c(c4C)COC5=O)CC3)C2=O)n1 [Example 45, (R)-2-(2-ethylpyrimidin-4-yl)-8-(2-hydroxy-2-(4-methyl-1-oxo-1,3-dihydroisobenzofuran-5-yl)ethyl)-2,8-diazaspiro[4.5]decan-1-one] | 354
4 | Cc1c([C@@H](O)CN2CCC3(CC2)OCCN(c2ccc(=O)n(C)n2)C3=O)ccc2c1COC2=O [Example 102, (R)-9-(2-hydroxy-2-(4-methyl-1-oxo-1,3-dihydroisobenzofuran-5-yl)ethyl)-4-(1-methyl-6-oxo-1,6-dihydropyridazin-3-yl)-1-oxa-4,9-diazaspiro[5.5]undecan-5-one] | 349
5 | Cc1c([C@@H](O)CN2CCC3(CC2)CCN(c2ccccn2)CC3)ccc2c1COC2=O [Example 112, 3-[(2R)-2-hydroxy-2-(4-methyl-1-oxo-1,3-dihydro-2-benzofuran-5-yl)ethyl]-9-pyridin-2-yl-9-aza-3-azoniaspiro[5.5]undecane] | 282
6 | CNc1nccc(N2CCC3(CCN(C[C@H](O)c4ccc5c(c4C)COC5=O)CC3)C2=O)n1 [Example 47, (R)-8-(2-hydroxy-2-(4-methyl-1-oxo-1,3-dihydroisobenzofuran-5-yl)ethyl)-2-(2-(methylamino)pyrimidin-4-yl)-2,8-diazaspiro[4.5]decan-1-one] | 58.5
7 | Cc1c([C@@H](O)CN2CCC3(CC2)C[C@H](C)N(c2ccc(=O)n(C)n2)C3=O)ccc2c1COC2=O [Example 97, (S)-8-((R)-2-hydroxy-2-(4-methyl-1-oxo-1,3-dihydroisobenzofuran-5-yl)ethyl)-3-methyl-2-(1-methyl-6-oxo-1,6-dihydropyridazin-3-yl)-2,8-diazaspiro[4.5]decan-1-one] | 378
8 | Cc1c([C@@H](O)CN2CCC3(CC2)CCN(c2ccnnc2)CC3)ccc2c1COC2=O [Example 142, (R)-5-(1-hydroxy-2-(9-(pyridazin-4-yl)-3,9-diazaspiro[5.5]undecan-3-yl)ethyl)-4-methylisobenzofuran-1(3H)-one] | 170
9 | COc1nsc(N2CCC3(CCN(C[C@H](O)c4ccc5c(c4C)COC5=O)CC3)C2)n1 [Example 13, (R)-5-(1-hydroxy-2-(2-(3-methoxy-1,2,4-thiadiazol-5-yl)-2,8-diazaspiro[4.5]decan-8-yl)ethyl)-4-methylisobenzofuran-1(3H)-one] | 336
10 | Cc1c([C@@H](O)CN2CCC3(CC2)CN(c2ccns2)C3)ccc2c1COC2=O [Example 16] | 418
11 | Cc1cc(N2CCC3(CCN(C[C@H](O)c4ccc5c(c4C)COC5=O)CC3)CC2)nnc1Cl [Example 130, (R)-5-(2-(9-(6-chloro-5-methylpyridazin-3-yl)-3,9-diazaspiro[5.5]undecan-3-yl)-1-hydroxyethyl)-4-methylisobenzofuran-1(3H)-one] | 553
12 | Cc1c([C@@H](O)CN2CCC3(CC2)CCN(c2cccnc2)C3=O)ccc2c1COC2=O [Example 35, (R)-8-(2-hydroxy-2-(4-methyl-1-oxo-1,3-dihydroisobenzofuran-5-yl)ethyl)-2-(pyridin-3-yl)-2,8-diazaspiro[4.5]decan-1-one] | 379
13 | Cc1c([C@@H](O)CN2CCC3(CC2)CCN(c2cncc(F)c2)C3=O)ccc2c1COC2=O [Example 38, (R)-2-(5-fluoropyridin-3-yl)-8-(2-hydroxy-2-(4-methyl-1-oxo-1,3-dihydroisobenzofuran-5-yl)ethyl)-2,8-diazaspiro[4.5]decan-1-one] | 82.5
14 | Cc1c([C@@H](O)CN2CCC3(CC2)CCN(c2ncc(C(F)(F)F)cc2F)CC3)ccc2c1COC2=O [Example 119, (R)-5-(2-(9-(3-fluoro-5-(trifluoromethyl)pyridin-2-yl)-3,9-diazaspiro[5.5]undecan-3-yl)-1-hydroxyethyl)-4-methylisobenzofuran-1(3H)-one] | 967
15 | O[C@@H](CN1CCC2(CC1)CCN(c1cncc(Cl)n1)CC2)c1ccc(-n2cnnn2)nc1 [Example 134, (R)-1-(6-(1H-tetrazol-1-yl)pyridin-3-yl)-2-(9-(6-chloropyrazin-2-yl)-3,9-diazaspiro[5.5]undecan-3-yl)ethanol] | 747
16 | COc1ccncc1N1CCC2(CCN(C[C@H](O)c3ccc4c(c3C)COC4=O)CC2)C1=O [Example 77, (R)-8-(2-hydroxy-2-(4-methyl-1-oxo-1,3-dihydroisobenzofuran-5-yl)ethyl)-2-(4-methoxypyridin-3-yl)-2,8-diazaspiro[4.5]decan-1-one] | 697
17 | Cc1c([C@@H](O)CN2CCC3(CC2)CCN(c2ncccn2)CC3)ccc2c1COC2=O [Example 136, (R)-5-(1-hydroxy-2-(9-(pyrimidin-2-yl)-3,9-diazaspiro[5.5]undecan-3-yl)ethyl)-4-methylisobenzofuran-1(3H)-one] | 330
18 | Cc1c([C@@H](O)CN2CCC3(CC2)CCN(c2sncc2Cl)C3=O)ccc2c1COC2=O [Example 105, (R)-2-(4-chloroisothiazol-5-yl)-8-(2-hydroxy-2-(4-methyl-1-oxo-1,3-dihydroisobenzofuran-5-yl)ethyl)-2,8-diazaspiro[4.5]decan-1-one] | 54.2
19 | Cc1c([C@@H](O)CN2CCC3(CC2)CCN(c2ccc(=O)n(C)n2)C3=O)ccc2c1COC2=O [Example 56, (R)-8-(2-hydroxy-2-(4-methyl-1-oxo-1,3-dihydroisobenzofuran-5-yl)ethyl)-2-(1-methyl-6-oxo-1,6-dihydropyridazin-3-yl)-2,8-diazaspiro[4.5]decan-1-one] | 35.1
20 | Cc1c([C@@H](O)CN2CCC3(CC2)CCN(c2ccc(OC(F)F)nc2)C3=O)ccc2c1COC2=O [Example 76, (R)-2-(6-(difluoromethoxy)pyridin-3-yl)-8-(2-hydroxy-2-(4-methyl-1-oxo-1,3-dihydroisobenzofuran-5-yl)ethyl)-2,8-diazaspiro[4.5]decan-1-one] | 320
21 | Cc1nc(-n2cnnn2)ccc1[C@@H](O)CN1CCC2(CC1)CCN(c1ncns1)C2=O [Example 99, (R)-8-(2-hydroxy-2-(2-methyl-6-(1H-tetrazol-1-yl)pyridin-3-yl)ethyl)-2-(1,2,4-thiadiazol-5-yl)-2,8-diazaspiro[4.5]decan-1-one] | 242
22 | O[C@@H](CN1CCC2(CC1)CCN(c1cc(Cl)cnn1)CC2)c1ccc(-n2cnnn2)nc1 [Example 138, (R)-1-(6-(1H-tetrazol-1-yl)pyridin-3-yl)-2-(9-(5-chloropyridazin-3-yl)-3,9-diazaspiro[5.5]undecan-3-yl)ethanol] | 387
23 | Cc1c([C@@H](O)CN2CCC3(CC2)CCN(c2ccc(=O)n(C)c2)C3=O)ccc2c1COC2=O [Example 82, (R)-8-(2-hydroxy-2-(4-methyl-1-oxo-1,3-dihydroisobenzofuran-5-yl)ethyl)-2-(1-methyl-6-oxo-1,6-dihydropyridin-3-yl)-2,8-diazaspiro[4.5]decan-1-one] | 424
